From patent publication US7968097B2, “Identification of Hla-A2-presented T-cell epitopes derived from the oncofoetal antigen-immature laminin receptor protein and uses thereof” (Immatics Biotechnologies GmbH, priority 2005, dated 2011)
Entries after “also recorded” stand apart in the source; their conditions may differ.

Assays:
Format in all cases: cell-based, human
[1] = system: CD8+ lymphocytes from peripheral blood of HLA-A2+ donors; assay: Tetramer analysis of microsphere driven expansion of peptide-specific CD8+ lymphocytes; settings: for Evaluable donors with clearly positive T-cell responses: of 5 evaluable HLA-A2+ donors, microspheres with anti-CD28 plus high density A*0201/peptide; for Evaluable stimulations with clearly positive T-cell responses: of 53 (RPS-001) or 54 (RPS-002) evaluable stimulations among all evaluable donors
Text: 1×10^6 CD8+ enriched PBMCs per well of the healthy HLA-A2+ donor HBC-065 were stimulated weekly in one well with microspheres coupled to anti-CD28 plus high density tumor antigen A*0201/RPS-001 (upper panel) or high density tumor antigen A*0201/RPS-002 (lower panel) as shown before [Walter, S, et al. Cutting Edge: Predetermined avidity of human CD8 T cells expanded on calibrated MHC/anti-CD28-coated microspheres. J. Immunol. 171(10):4974-8, 2003] with minor modifications. After three stimulations in vitro, cells of both wells were stained with antibody CD8 FITC plus tetramer A*0201/RPS-001 APC and A*0201/RPS-002 PE. Cells are gated on the lymphocyte population (left and middle panel) or on the CD8+ lymphocyte population (right panel). Numbers represent percentage of tetramer^+ within CD8+ lymphocytes. RPS-001=LLAARAIVAI (SEQ ID-No. 1); RPS-002=ALCNTDSPL (SEQ ID-No. 2)
Table 6: Summary of tetramer analysis of microsphere driven expansions of A2/RPS-001 and A2/RPS-002 specific CD8^+ lymphocytes from peripheral blood. 1×10^6 CD8^+ enriched PBMCs per well were stimulated as in FIG. 12 with microspheres coupled to anti-CD28 plus high density tumor antigen A*0201/RPS-001 or high density tumor antigen A*0201/RPS-002. Indicated are number of evaluable HLA-A2^+ donors, number of evaluable donors with at least one clearly positive response, number of evaluable stimulations among all evaluable donors and number of evaluable stimulations with clearly positive responses. RPS001=LLAARAIVAI (SEQ ID-NO: 1); RPS-002=ALCNTDSPL (SEQ ID-NO: 2)

[2] = system: tumor cells from AML patients; assay: 51Chromium release assay, peptide-specific CTL on tumor cells from AML patients; settings: for recognition of AML cells from A*02-negative patients by peptide-specific T cells / recognition of AML cells from A*02-positive patients by peptide-specific T cells: 1st and 2nd experiment; for A*02-positive AML patients in whom the peptide is a tumor-associated antigen: summary of two sets of experiments
Text: (§1) CTL derived from healthy HLA-A*0201^+ individuals were generated using a protocol described elsewhere (Zeis M, Siegel S, Schmitz M et al. Induction of cytotoxic T lymphocytes against hematologic neoplasms by survivin RNA-transfected dendritic cells. J Immunol. 2003; 170, 5391-5397.). For the induction of autologous OFA/ILR, peptide-specific CTL obtained from patients with AML and CLL, CD8^+ T cells were separated from PBMC using immunomagnetic beads (MACS®, Miltenyi, Bergisch-Gladbach, Germany), cultured with autologous OFA/iLR peptide-pulsed fully matured DC and restimulated with autologous peptide-pulsed PBMC in the presence of IL-2 (1 ng/ml, CellConcepts, Weisskirch, Germany). After at least four weekly restimulations, CTL reactivity was determined in a conventional 4 h ^51Chromium release assay. Cold target inhibition assays and antibody blocking experiments were performed as previously described (Zeis M, Siegel S, Schmitz M et al. Induction of cytotoxic T lymphocytes against hematologic neoplasms by survivin RNA-transfected dendritic cells. J Immunol. 2003; 170, 5391-5397.).
T cells specific for HLA-A*02-restricted ILR1 were tested on tumor cells from AML patients (4 patients; samples AML-01, -02, -03, -06) (FIG. 4A). Cells from A*02-positive patients (3/4) were recognized with maximum lysis at an E:T ratio of 40:1 ranging between 25,9% and 39,8%.
T cells specific for HLA-A*02-restricted ILR1 were tested on tumor cells from AML patients for a second time to confirm the results obtained in the 1st experiment (9 patients; samples AML-01, -02, -04, -05, -06, -07, -09, -10, -12).
T cells specific for HLA-A*02-restricted ILR2 were tested on tumor cells from AML patients (8 patients; samples AML-01, -02, -04, -05, -06, -07, -10, -12). […] The experiment was conducted a 2nd time with samples from patients […]. In this 2nd experiment, T cells specific for HLA-A*02-restricted ILR2 were tested again on tumor cells from AML patients (4 patients; samples AML-01, -02, -03, -06).

[3] = system: PBMC from healthy donors, CD34-positive progenitor cells, bone marrow cells; assay: 51Chromium release assay, peptide-specific CTL on normal cells; settings: for recognition of bone marrow cells by peptide-specific T cells: A*02-positive donors (BM-01, -02); for recognition of CD34-positive bone-marrow-derived progenitor cells by peptide-specific T cells: A*02-positive donors (CD34-01, -02)
Text: as §1
T cells recognizing the ILR1-peptide were tested on K562 [human pro-erythroblastic leukemia cell-line, also known as chronic myelogenous leukemia (CML) cell line, which, due to extremely low levels of HLA, functions as a control for excluding NK cells as effector cells], IND (human B lymphoblastoid cell line), Karpas-422 (human B cell lymphoma), Balm-3 (human non-Burkitt B-lymphoma cell line), U266 (human multiple myeloma), REH (Human B cell precursor leukemia), MEC-1 (human chronic B cell leukemia). The same T cells were used to test autologous and allogeneic PBMC from healthy donors as controls. […] The response is not directed against allogeneic major or minor histocompatibility complex antigens. • 3. ILR1 peptide is recognized in an HLA-restricted fashion. • 4. The restriction is allele-specific (specific for A*02). Target: AML

[4] = system: peptide-pulsed 51Cr-labelled T2 cells; assay: Cold target inhibition assay
Text: as §1
A cold target inhibition assay was performed. To examine whether ILR1-specific T cells lyse ILR1 peptide-pulsed T2 cells specifically and in the context of HLA-A*02, cold target inhibition assays were performed as follows: ^51Cr-labelled T2 cells were loaded with peptide in a concentration of 10 microgram peptide/10^6 T2 cells/ml. A total of 2×10^5 unlabelled, T2 cells, which had equally been loaded with the same or a control peptide, were then added in a volume of 50 microliter AIMV to 10^4 peptide-pulsed, ^51Cr-labelled T2 cells. Effector T cells specific for ILR1 were added and a ^51Cr-release assay was performed as described above.
A cold target inhibition assay was performed as described under “T2+ILR1” above.

[5] = hot target ILR1-peptide-pulsed T2, effectors ILR1-specific CTL, 10 microgram peptide/10^6 T2 cells/ml
[6] = hot target ILR2-peptide-pulsed T2, effectors ILR2-specific CTL

Sequence	Evaluable donors with clearly positive T-cell responses [1]	Evaluable stimulations with clearly positive T-cell responses [1]	recognition of AML cells from A*02-negative patients by peptide-specific T cells [2]	recognition of AML cells from A*02-positive patients by peptide-specific T cells [2]	A*02-positive AML patients in whom the peptide is a tumor-associated antigen [2] [%]	lysis of HLA-A2-negative targets and normal hematopoietic cells by peptide-specific CTL lines [3]	recognition of allogeneic and autologous PBMC from healthy donors by peptide-specific T cells [3]	recognition of bone marrow cells by peptide-specific T cells [3]	recognition of CD34-positive bone-marrow-derived progenitor cells by peptide-specific T cells [3]	competition of cold targets loaded with the peptide for lysis [4, 5]	competition of cold targets loaded with the peptide for lysis [4, 6]
ALCNTDSPL (listed as Homo sapiens) [ILR2]	1	1	not recognized (4/4); also recorded: not recognized (0/1)	recognized in all cases (4/4)	100	spared	not recognized	not recognized	not recognized	neither peptides irrelevant for ILR1-specific CTL (Survivin and ILR2), nor unloaded T2 cells, which display empty HLA-A*02 molecules on their cell surfaces, compete for lysis	compete with the primary target cells
LLAARAIVAI (listed as Homo sapiens) [ILR1]	5	29	not recognized (4/4)	recognized in all cases	100	spared	not recognized	not recognized	not recognized	compete with the primary target cells	neither peptides irrelevant for ILR2-specific CTL (Survivin and ILR1), nor unloaded T2 cells, which display empty HLA-A*02 molecules on their cell surfaces, compete for lysis
